Assay results: patent US9155694B2, “Stabilized composition comprising at least one adrenergic compound” (ALK AG, priority 2009, dated 2015)

Legend:
[1] = 0.25% di-sodium edetate admixed; 60° C., up to 28 days; at the metabisulfite levels contemplated
Procedure: (§1) A 1.1 mg/ml solution of adrenaline (6.004×10^−3 M), in the form of the tartrate, pH 3.4 and containing 0.6% sodium chloride was used. A range of metabisulfite antioxidant concentrations, with and without admixture of 0.25% di-sodium edetate as chelating agent were tested. The metabisulfite/adrenaline molar ratios tested were 0.1, 0.2, 0.5, 1.0 and 1.5, which correspond to sulfite/adrenaline ratios of 0.2, 0.4, 1.0, 2.0 and 3.0, respectively. For the ease of reference to the general description and claims of this specification, the said values correspond to a molar ratio of adrenaline to sulfite of 5.0, 2.5, 1.0, 0.5 and 0.33, respectively.
The accelerated test temperature was 60° C., protected from light, and samples were pulled at 0, 7, 14, 21 and 28 days. At each pull point, the appearance of the test solution was assessed, the pH measured and the solution assayed for adrenaline content. The appearance of degradation products was noted as area %.
[adr]^+ relates to samples containing 0.025% di-sodium edetate, whereas [adr] relates to samples containing no chelating agent.

[2] = 60° C., weeks 0-4; FIGS. 8 and 9
Procedure: as §1
The accelerated test temperature was 60° C., protected from light, and samples were pulled at 0, 7, 14, 21 and 28 days. At each pull point, the appearance of the test solution was assessed, the pH measured and the solution assayed for adrenaline content. The appearance of degradation products was noted as area %. […]
Each sample solution was split into two lots. […] Samples were pulled from both conditions at 0, 7, 14 and 28 days At each pull point, the appearance of the test solution was assessed, the pH measured and the adrenaline content measured together with impurities.

[3] = auto-oxidation rate increases with pH
[4] = Further stability testing, thermal stress at 60° C. protected from light (Example 3); format: physicochemical
Procedure: (§2) The formulation solutions were prepared at a level of 1.0 mg/ml adrenaline (in the form of the tartrate), pH 3.4 containing 0.6% sodium chloride, with various molar ratios (0.25-0.59) of sodium metabisulfite added. The metabisulfite/adrenaline molar ratios tested were 0.25, 0.34, 0.42, 0.5 and 0.59, which correspond to sulfite/adrenaline ratios of 0.5, 0.68, 0.84, 1.0 and 1.18, respectively. For the ease of reference to the general description and claims of this specification, the said values correspond to a molar ratio of adrenaline to sulfite of 2.0, 1.47, 1.19, 1.0 and 0.85, respectively.
(§3) Each sample solution was split into two lots. For each sample solution, one lot was placed at the accelerated test temperature of 60° C., protected from light and the other lot placed in a photo-stability cabinet at 25° C. which provided 13400 lux visible light, 1.50 W·h/m^2 UV. Samples were pulled from both conditions at 0, 7, 14 and 28 days At each pull point, the appearance of the test solution was assessed, the pH measured and the adrenaline content measured together with impurities.

[5] = 1.0 mg/ml adrenaline (tartrate), pH 3.4, 0.6% sodium chloride; 25° C., 13400 lux visible light, 1.50 W·h/m^2 UV, up to 28 days
Procedure: as §2, §3

Compound: O=C([O-])CN(CCN(CC(=O)[O-])CC(=O)O)CC(=O)O.[Na+].[Na+] [di-sodium edetate]
- advantage of chelating agent for adrenaline solution stability [1]: no advantage

Compound: CNC[C@H](O)c1ccc(O)c(O)c1 [epinephrine, (R)-4-(1-hydroxy-2-(methylamino)ethyl)benzene-1,2-diol]
- optimum sulfite:adrenaline ratio [2]: about 1.0
- pH for maximum stability of epinephrine in solution [3]: about 3.4
- best metabisulfite:adrenaline ratio on the basis of total impurities from heat stress ([4]; 1.0 mg/ml adrenaline (tartrate), pH 3.4, 0.6% sodium chloride, 60° C., up to 28 days): 0.42
- first choice of metabisulfite content with respect to adrenaline ([4]; considering both stresses (thermal 60° C. and photo-stress), loss of adrenaline, FIGS. 4 and 5): half molar
- best metabisulfite:adrenaline ratio on the basis of total impurities from photo-stress [5]: 0.5
